Data taken from patent US6355785B1, “Guanosine-rich oligonucleotide integrase inhibitors” (Aronex Pharmaceuticals, Inc., priority 1993, dated 2002).
Read-outs that look alike come from different tables or passages of the source.

Assays:
[1] = test system: HIV-1IIIB; assay: Time of drug addition study, MT-4 cells (p24); type: cell-based; details: 100-fold IC50, MOI 1, p24 at 29 hour
[2] = target: recombinant HIV-1 integrase (wild-type) (Human immunodeficiency virus type 1 group M subtype B, UniProt P12497); assay: HIV-1 integrase 3′-processing and strand transfer assays; type: biochemical; design: Purified recombinant HIV-1 integrase enzyme (wild-type) was a generous gift from Dr. R. Craigie; purchased gift of Dr. R. Craigie, Laboratory of Molecular Biology, NIDDK (not bought)
[3] = test system: HIV-1 strain DV; assay: HIV-1 induced syncytia formation assay in SUP T1 cells; type: cell-based
[4] = in vitro; details: human
[5] = test system: HSV-1
[6] = target: T1, SIV integrase (Simian immunodeficiency virus, UniProt P05896); assay: SIV integrase 3′-processing assay; type: biochemical
T1 construct: Purified recombinant wild-type FIV and SIV integrases were generous gifts; purchased gift of Dr. R. Craigie (NIDDK) (not bought)
T1 sequence (P05896 1156-1448): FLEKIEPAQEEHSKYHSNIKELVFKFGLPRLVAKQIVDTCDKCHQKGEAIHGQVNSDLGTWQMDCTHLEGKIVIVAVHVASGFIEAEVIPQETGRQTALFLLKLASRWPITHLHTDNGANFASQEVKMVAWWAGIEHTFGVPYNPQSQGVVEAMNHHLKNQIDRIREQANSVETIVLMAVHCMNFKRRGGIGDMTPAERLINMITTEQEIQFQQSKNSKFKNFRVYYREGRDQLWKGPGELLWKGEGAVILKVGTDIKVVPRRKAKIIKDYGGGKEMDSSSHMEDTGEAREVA

[7] = test system: CEMx174; type: cell-based, human
Protocol: (§1) Cytotoxicity Analysis. The cytotoxicity of T30177 was assayed as described above. […] The degree of cell proliferation was determined according to the manufacturer's instructions.
(§2) Cytotoxicity Assays. The cytotoxicity of T30177 was determined using several different cell lines and primary human cells as described above. The cytotoxicity profile obtained for log phase growing cells was variable depending upon the cell line used, while the slower growing PBMCs, PBLs, and macrophages all tolerated the compound at concentrations exceeding 100 μM as monitored using the trypan blue exclusion, [^3H]thymidine uptake, or [^3H]leucine uptake techniques.

[8] = test system: U937; type: cell-based, human
Protocol: as §1, §2

[9] = test system: MT4; type: cell-based, human
Protocol: as §1, §2

[10] = test system: MT2; type: cell-based, human
Protocol: as §1, §2

[11] = test system: CEM-SS; type: cell-based, human
Protocol: as §1, §2

[12] = test system: AA5; type: cell-based, human
Protocol: as §1, §2

[13] = test system: Yellow Fever virus
[14] = 3′-processing, read-out: Anti-Integrase Assay IC50 3′-proc
[15] = strand transfer, read-out: Anti-Integrase Assay IC50 strand tran.

**Q.** For `Cc1cn([C@H]2C[C@H](N=[N+]=[N-])[C@@H](CO)O2)c(=O)[nH]c1=O` [AZT, 3′-azido-3′-deoxythymidine], which “delay of drug addition post-infection at which inhibitory effect is lost” value [1] is on record?
**A.** 3 or 4 hours post-infection

**Q.** What about the IC50 [2, 14] of the same compound?
**A.** > 1 µM

**Q.** And the IC50 [2, 15]?
**A.** > 1 µM

**Q.** And the “reappearance of syncytium after removal of drug” value ([3]; 4 μM, removed day 4)?
**A.** two days after removal

**Q.** And the IC50 ([3]; Human immunodeficiency virus 1, 96 h, SUP T1, HIV-1DV, four days, read-out: IC50 Syn (syncytium inhibition))?
**A.** 0.04 µM

**Q.** And the IC50 ([3]; Human immunodeficiency virus 1, SUP-T1, size variants of I100-15, read-out: IC50 Syn.)?
**A.** 0.02 µM

**Q.** What about the CC50 [4] of the same compound?
**A.** ~10 µM

**Q.** What does the source list for “5′-gtggtgggtgggtgggt-3′ [T30177] (GTGGTGGGTGGGTGGGT; phosphorothioate termini, further chemistry not given here) [pPT version of parent compound I100-15, 17 mer]”?
**A.** IC50 virus-induced cytopathogenicity ([5]; HSV-1 (KOS)): >200 µg/mL; MCC minimum concentration altering normal cell morphology ([5]; HSV-1 (KOS) assay): 400 μg/mL; IC50 virus-induced cytopathogenicity ([5]; HSV-1 TK (B2006)): >200 µg/mL; MCC minimum concentration altering normal cell morphology ([5]; HSV-1 TK (B2006) assay): 400 μg/mL; IC50 virus-induced cytopathogenicity ([5]; HSV-1 TK (VMW1837)): >200 µg/mL; MCC minimum concentration altering normal cell morphology ([5]; HSV-1 TK (VMW1837) assay): 400 μg/mL; increase in potency (3′-processing) with magnesium instead of manganese [2]: four to five-fold; IC50 [2, 14]: 0.092 µM; IC50 ([2]; HIV-1 integrase, read-out: IC50 3′-processing): 0.055 µM; IC50 ([2]; read-out: Enzyme IC50 3-′process): 0.049 µM; IC50 ([2]; read-out: Enzyme IC50 Stran Trans): 0.079 µM; IC50 [2, 15]: 0.046 µM

**Q.** With “5′-gtggtgggtgggtgggt-3′ (GTGGTGGGTGGGTGGGT; phosphorothioate termini, further chemistry not given here) [T30177]” as the compound, how does the IC50 [6] read?
**A.** 0.42 µM

**Q.** What about the CC50 [7] of the same compound?
**A.** 50 ± 5.2 µM

**Q.** What about the TC25 [7] of the same compound?
**A.** 10 ± 2.5 µM

**Q.** And the TC95 [7]?
**A.** >100 µM

**Q.** And the CC50 [8]?
**A.** > 100 µM

**Q.** What about the TC25 [8] of the same compound?
**A.** >100 µM

**Q.** What about the TC95 [8] of the same compound?
**A.** >100 µM

**Q.** And the CC50 [9]?
**A.** 70 ± 7.1 µM

**Q.** And the TC25 [9]?
**A.** 34 ± 4.0 µM

**Q.** What about the TC95 [9] of the same compound?
**A.** >100 µM

**Q.** What about the CC50 [10] of the same compound?
**A.** 61.2 ± 5.5 µM

**Q.** What about the TC25 [10] of the same compound?
**A.** 27 ± 3.5 µM

**Q.** And the TC95 [10]?
**A.** >100 µM

**Q.** And the CC50 [11]?
**A.** 92 ± 3 µM

**Q.** And the TC25 [11]?
**A.** 50.8 ± 3.2 µM

**Q.** And the TC95 [11]?
**A.** >100 µM

**Q.** And the CC50 [12]?
**A.** 94.2 ± 3.1 µM

**Q.** And the TC25 [12]?
**A.** 45.66 ± 2.0 µM

**Q.** What about the TC95 [12] of the same compound?
**A.** >100 µM

**Q.** What about the “delay of drug addition post-infection at which inhibitory effect is lost” value [1] of the same compound?
**A.** one hour

**Q.** And the IC50 virus-induced cytopathogenicity ([13]; Yellow Fever virus)?
**A.** >200 µg/mL

**Q.** And the “MCC minimum concentration altering normal cell morphology” value ([13]; Yellow Fever virus assay)?
**A.** >200 μg/mL
